Experimental data as given in patent US9096544B2, “Therapeutic compounds” (Wayne State University, priority 2009, dated 2015).

Test system: TF(v-SRC) cells
Assay: Test E: inhibition of TF(v-SRC) cell growth in SCID mice (systemic model)
Assay type: in vivo
Settings: 20 mg/kg intravenously every other day, 15 doses
Experimental: FIG. 7 illustrates compound 16 inhibited TF(v-SRC) proliferation and growth in SCID mice. NOD SCID mice were randomized into two groups of eight. Each mouse was injected with 1×10^7TF(v-SRC) cells and 24 h later mice were either treated intravenously with compound 16 (20 mg/kg) or vehicle on a Monday, Wednesday and Friday schedule for five weeks. Mice were monitored for toxicity and survival. A) Survival of TF(vSRC) inoculated mice treated with compound 16, and B) absence of weight loss in compound 16 treated SCID mice. C) compound 16 inhibited palpable TF(v-SRC) growth in SCID mice. TF(v-SRC) cells were grown subcutaneously in a maintenance SCID mouse. The tumor was harvested and approximately 20 mg of tumor was subcutaneously injected utilizing a trochar into each flank of a SCID mouse. The tumors were then allowed to reach a size of 100 mg. The mice were randomized into three groups of 8 mice. Groups were treated either intravenously or subcutaneously at a distant site from the tumor with 20 mg/kg of compound 16 on a Monday, Wednesday and Friday schedule for 12 injections (4 weeks). Control mice were treated intravenously with vehicle.
Non-obese diabetic-severe combined immunodeficiency (NOD-SCID) and ICR-SCID mice were obtained from Jackson Laboratories (Bar Harbor, Me.) and Taconic Farms (Germantown, N.Y.), respectively. A) FFMA-AML and TF(v-SRC) systemic models: NOD-SCID and ICR-SCID mice (4 to 5 weeks old) were injected with either FFMA-AML or TF(v-SRC) cells intravenously. Treatment with either vehicle, 3-Cl-AHPC or compound 16 (the compound of Example 1) was instituted the following day. Once symptoms such as diarrhea, dehydration, weight loss, ascites, paralysis or general weakness became evident, mice were euthanized. B) TF(v-SRC) subcutaneous mouse model. ICR-SCID mice were trocared subcutaneously bilaterally with TF(v-SRC) tumor fragments. Animals with equal tumor weights determined as described previously (Zhang Y. et al., Blood. 2002; 100:2917-2925) were assigned to three experimental arms: 1) control (vehicle treated), 2) subcutaneously treated with compound 16, and 3) intravenously treated with compound 16. The percent increase in the host life-span (% ILS) of the FFMA-AML and TF(v-SRC) bearing mice was calculated by subtracting the […] divided by the median day of death of the AML-bearing vehicle treated mice. In order to determine the efficacy of the 3-Cl-AHPC and compound 16, survival distribution of the 3-Cl-AHPC or compound 16-treated (T) or vehicle (C) groups were compared using the log-rank test. Survival was characterized as the duration of the animal's life span 24 h after the initiation of the xenograft until an observed event (euthanasia or death). A p-value of less than 5% (p<0.05) was considered statistically significant.
The ability of compound 16 to inhibit the growth of TF(v-SRC) cells in SCID mice was determined. SCID mice were injected with 10 million TF(v-SRC) cells. The mice were treated intravenously with compound 16 (20 mg/kg) or vehicle every other day for a total of 15 doses. […] TF(v-SRC) growth in the SCID mice was documented by flow cytometry.

In the case of `O=C(O)/C=C/c1cnc(-c2ccc(O)c(C34CC5CC(CC(C5)C3)C4)c2)nc1` [Compound 16, (E)-3-[2-(3-(1-Adamantyl)-4-hydroxyphenyl)-5-pyrimidinyl]-2-propenoic acid], the “clinical signs of toxicity” value is reported as “did not display any evidence of diarrhea, dehydration, scruffy coat, or decreased physical activity”, the length of survival is reported as “marked increase in the length of survival” and the “malignant cells by flow cytometry (lymph node/tumor specimens)” value is reported as “No malignant cells were identified”. The “treated mice with no evidence of leukemia” value was 87% and the “weight loss compared to vehicle-treated mice” value was “did not display any evidence of weight loss”.
